According to patent US20070004660A1, “Synergistic Modulation of Flt3 Kinase Using Alkylquinolines and Alkylquinazolines” (priority 2005, published 2007):
pIC50: −log10 of the molar value.

Key:
[1] = target: T1, isolated kinase domain of the human FLT3 receptor (a.a. 571-993) (Homo sapiens, UniProt P36888); experiment: FLT3 fluorescence polarization kinase assay; format: biochemical; conditions: 150 uM ATP; uncertainty ±10%
T1 construct: human FLT3 receptor (a.a. 571-993)
T1 sequence (P36888 571-993): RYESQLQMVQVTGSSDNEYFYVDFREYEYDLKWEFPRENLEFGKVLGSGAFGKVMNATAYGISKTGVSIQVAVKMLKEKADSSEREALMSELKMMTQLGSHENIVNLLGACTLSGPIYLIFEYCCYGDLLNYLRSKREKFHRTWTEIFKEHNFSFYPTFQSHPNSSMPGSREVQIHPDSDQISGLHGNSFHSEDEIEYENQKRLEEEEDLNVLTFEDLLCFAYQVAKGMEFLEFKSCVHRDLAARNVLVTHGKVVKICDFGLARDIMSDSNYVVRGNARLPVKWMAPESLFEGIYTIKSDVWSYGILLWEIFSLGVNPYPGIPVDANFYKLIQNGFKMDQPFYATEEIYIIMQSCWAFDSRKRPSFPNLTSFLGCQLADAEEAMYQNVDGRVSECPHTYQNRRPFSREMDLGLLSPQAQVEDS

MV4-11 cells = experiment: Inhibition of MV4-11 cell proliferation (CellTiterGlo, 72 h); format: cell-based; conditions: Homo sapiens; 72 h growth inhibition; uncertainty ±20%

| Compound | pIC50 [1] | pIC50 (MV4-11 cells) |
| --- | --- | --- |
| COc1cc2ncnc(C3CCN(C(=O)Nc4ccc(N5CCCC5=O)cc4)CC3)c2cc1OC [Example 57, 4-(6,7-Dimethoxy-quinazolin-4-yl)-piperidine-1-carboxylic acid [4-(2-oxo-pyrrolidin-1-yl)-phenyl]-amide] | 6.15 | 5.92 |
| CCCCc1ccc(NC(=O)N2CCC(c3ncnc4cc(OC)c(OC)cc34)CC2)cc1 [Example 43, 4-(6,7-Dimethoxy-quinazolin-4-yl)-piperidine-1-carboxylic acid (4-butyl-phenyl)-amide] | 7.62 | 6.71 |
| CS(=O)(=O)NCCCOc1ccc2c(C3CCN(C(=O)Nc4ccc(N5CCOCC5)nc4)CC3)ncnc2c1 [Example 87, 4-[7-(3-Methanesulfonylamino-propoxy)-quinazolin-4-yl]-piperidine-1-carboxylic acid (6-morpholin-4-yl-pyridin-3-yl)-amide] | 7.49 | 7.16 |
| CN1CCN(CCCOc2ccc3c(C4CCN(C(=O)Nc5ccc(N6CCOCC6)c(F)c5)CC4)ncnc3c2)CC1 [Example 81, 4-{7-[3-(4-Methyl-piperazin-1-yl)-propoxy]-quinazolin-4-yl}-piperidine-1-carboxylic acid (3-fluoro-4-morpholin-4-yl-phenyl)-amide] | 8.15 | 7.15 |
| O=C(Nc1ccc(N2CCOCC2)cc1)N1CCC(c2ncnc3cc(OCCCN4CCCCC4)ccc23)CC1 [Example 75] | 7.31 | 7.15 |
| COc1cc2ncnc(C3CCN(C(=O)Nc4ccc(-c5ccco5)cc4)CC3)c2cc1OC [Example 59, 4-(6,7-Dimethoxy-quinazolin-4-yl)-piperidine-1-carboxylic acid (4-furan-2-yl-phenyl)-amide] | 6.66 | 6.57 |
| COc1cc2ncnc(C3CCN(C(=O)NC4CCC(C(C)(C)C)CC4)CC3)c2cc1OC (stereo not shown) [Example 54, 4-(6,7-Dimethoxy-quinazolin-4-yl)-piperidine-1-carboxylic acid (4-tert-butyl-cyclohexyl)-amide] | 6.77 | 6.65 |
| CCN(CC)CC#Cc1ccc2ncnc(C3CCN(C(=O)Nc4ccc(OC(C)C)cc4)CC3)c2c1 [Example 13, 4-[6-(3-Diethylamino-prop-1-ynyl)-quinazolin-4-yl]-piperidine-1-carboxylic acid (4-isopropoxy-phenyl)-amide] | 7.14 | 7.23 |
| CS(=O)(=O)NCCCOc1ccc2c(C3CCN(C(=O)Nc4ccc(N5CCOCC5)cc4)CC3)ncnc2c1 [Example 66, 4-[7-(3-Methanesulfonylamino-propoxy)-quinazolin-4-yl]-piperidine-1-carboxylic acid (4-morpholin-4-yl-phenyl)-amide] | 7.74 | 7.85 |
| COc1cc2ncnc(C3CCN(C(=O)Nc4ccc(-c5cncnc5)cc4)CC3)c2cc1OC [Example 58, 4-(6,7-Dimethoxy-quinazolin-4-yl)-piperidine-1-carboxylic acid (4-pyrimidin-5-yl-phenyl)-amide] | 5.70 | 5.70 |
| CC(C)c1ccc(NC(=O)N2CCC(c3ncnc4ccccc34)CC2)cc1 [Example 7, 4-Quinazolin-4-yl-piperidine-1-carboxylic acid (4-isopropyl-phenyl)-amide] | 7.26 | 6.63 |
| COc1cc2ncnc(C3CCN(C(=O)Nc4ccc(OC5CCCC5)nc4)CC3)c2cc1OC [Example 69, 4-(6,7-Dimethoxy-quinazolin-4-yl)-piperidine-1-carboxylic acid (6-cyclopentyloxy-pyridin-3-yl)-amide] | 7.12 | 7.23 |
| COc1cc2ncnc(C3CCN(CC(=O)Nc4ccc(OC(C)C)cc4)CC3)c2cc1OC [Example 10, 2-[4-(6,7-Dimethoxy-quinazolin-4-yl)-piperidin-1-yl]-N-(4-isopropoxy-phenyl)-acetamide] | 7.38 | 6.77 |
| O=C1CCCN1CCOc1ccc2c(C3CCN(C(=O)Nc4ccc(N5CCOCC5)nc4)CC3)ncnc2c1 [Example 83, 4-{7-[2-(2-Oxo-pyrrolidin-1-yl)-ethoxy]-quinazolin-4-yl}-piperidine-1-carboxylic acid (6-morpholin-4-yl-pyridin-3-yl)-amide] | 7.70 | 6.95 |
| COc1cc2ncnc(C3CCN(C(=O)Nc4ccc(OC(F)F)cc4)CC3)c2cc1OC [Example 51, 4-(6,7-Dimethoxy-quinazolin-4-yl)-piperidine-1-carboxylic acid (4-difluoromethoxy-phenyl)-amide] | 6.80 | 6.51 |
| O=C1CCCN1CCOc1ccc2c(C3CCN(C(=O)Nc4ccc(N5CCCC5)cc4)CC3)ncnc2c1 [Example 74, 4-{7-[2-(2-Oxo-pyrrolidin-1-yl)-ethoxy]-quinazolin-4-yl}-piperidine-1-carboxylic acid (4-pyrrolidin-1-yl-phenyl)-amide] | 9.00 | 7.40 |
| COc1cc2ncnc(C3CCN(C(=O)Nc4ccc(C(C)C)cc4)CC3)c2cc1OC [Example 4, 4-(6,7-Dimethoxy-quinazolin-4-yl)-piperidine-1-carboxylic acid (4-isopropyl-phenyl)-amide] | 8.05 | 7.07 |

Further lines, results first:

| pIC50 [1] | pIC50 (MV4-11 cells) | Compound |
| --- | --- | --- |
| 9.00 | 7.22 | CN1CCC(COc2ccc3c(C4CCN(C(=O)Nc5ccc(N6CCOCC6)cc5)CC4)ncnc3c2)CC1 [Example 94, 4-[7-(1-Methyl-piperidin-4-ylmethoxy)-quinazolin-4-yl]-piperidine-1-carboxylic acid (4-morpholin-4-yl-phenyl)-amide] |
| 9.10 | 7.47 | CC(C)Oc1ccc(NC(=O)N2CCC(c3ncnc4ccc(OCCCN5CCCC5=O)cc34)CC2)cc1 [Example 101, 4-{6-[3-(2-Oxo-pyrrolidin-1-yl)-propoxy]-quinazolin-4-yl}-piperidine-1-carboxylic acid (4-isopropoxy-phenyl)-amide] |
| 7.03 | 6.77 | CC(=O)N1CCN(CCCOc2ccc3c(C4CCN(C(=O)Nc5ccc(N6CCOCC6)cc5)CC4)ncnc3c2)CC1 [Example 117, 4-{7-[3-(4-Acetyl-piperazin-1-yl)-propoxy]-quinazolin-4-yl}-piperidine-1-carboxylic acid (4-morpholin-4-yl-phenyl)-amide] |
| 9.70 | 8.05 | CC(C)Oc1ccc(NC(=O)N2CCC(c3ncnc4cc(OCC5CCN(C)CC5)ccc34)CC2)cc1 [Example 93, 4-[7-(1-Methyl-piperidin-4-ylmethoxy)-quinazolin-4-yl]-piperidine-1-carboxylic acid (4-isopropoxy-phenyl)-amide] |
| 7.44 | 6.66 | CN(C)C(=O)N1CCN(CCCOc2ccc3c(C4CCN(C(=O)Nc5ccc(N6CCOCC6)cc5)CC4)ncnc3c2)CC1 [Example 120, 4-(3-{4-[1-(4-Morpholin-4-yl-phenylcarbamoyl)-piperidin-4-yl]-quinazolin-7-yloxy}-propyl)-piperazine-1-carboxylic acid dimethylamide] |
| 8.30 | 7.01 | O=C(NCCCOc1ccc2c(C3CCN(C(=O)Nc4ccc(N5CCCC5)nc4)CC3)ncnc2c1)N1CCOCC1 [Example 112, Morpholine-4-carboxylic acid (3-{4-[1-(6-pyrrolidin-1-yl-pyridin-3-ylcarbamoyl)-piperidin-4-yl]-quinazolin-7-yloxy}-propyl)-amide] |
| 9.00 | 7.24 | CN1CCC(COc2ccc3c(C4CCN(C(=O)Nc5ccc(N6CCCC6)nc5)CC4)ncnc3c2)CC1 [Example 99, 4-[7-(1-Methyl-piperidin-4-ylmethoxy)-quinazolin-4-yl]-piperidine-1-carboxylic acid (6-pyrrolidin-1-yl-pyridin-3-yl)-amide] |
| 8.70 | 7.62 | O=C1CCCN1CCCOc1ccc2c(C3CCN(C(=O)Nc4ccc(N5CCCC5)nc4)CC3)ncnc2c1 [Example 89, 4-{7-[3-(2-Oxo-pyrrolidin-1-yl)-propoxy]-quinazolin-4-yl}-piperidine-1-carboxylic acid (6-pyrrolidin-1-yl-pyridin-3-yl)-amide] |
| 7.55 | 6.58 | CC(=O)N1CCN(CCOc2ccc3c(C4CCN(C(=O)Nc5ccc(N6CCOCC6)cc5)CC4)ncnc3c2)CC1 [Example 97, 4-{7-[2-(4-Acetyl-piperazin-1-yl)-ethoxy]-quinazolin-4-yl}-piperidine-1-carboxylic acid (4-morpholin-4-yl-phenyl)-amide] |
| 7.64 | 6.87 | CS(=O)(=O)OCCCOc1ccc2c(C3CCN(C(=O)Nc4ccc(N5CCOCC5)cc4)CC3)ncnc2c1 [Example 122, Methanesulfonic acid 3-{4-[1-(4-morpholin-4-yl-phenylcarbamoyl)-piperidin-4-yl]-quinazolin-7-yloxy}-propyl ester] |
| 8.22 | 7.35 | CN1CCCN(CCCOc2ccc3c(C4CCN(C(=O)Nc5ccc(N6CCOCC6)cc5)CC4)ncnc3c2)CC1 [Example 125, 4-{7-[3-(4-Methyl-[1,4]diazepan-1-yl)-propoxy]-quinazolin-4-yl}-piperidine-1-carboxylic acid (4-morpholin-4-yl-phenyl)-amide] |
| 8.40 | 6.76 | CN1CCC(COc2ccc3c(C4CCN(C(=O)Nc5ccc(N6CCOCC6)nc5)CC4)ncnc3c2)CC1 [Example 108, 4-[7-(1-Methyl-piperidin-4-ylmethoxy)-quinazolin-4-yl]-piperidine-1-carboxylic acid (6-morpholin-4-yl-pyridin-3-yl)-amide] |
